According to publication PMC9609996, “SAR Study and Molecular Mechanism Investigation of Novel Naphthoquinone-furan-2-cyanoacryloyl Hybrids with Antitumor Activity” (Pharmaceutics, 2022):

Test system: HeLa cells
Test: Colony formation assay
Assay type: cell-based, human
Details: treated 24 h, cultured two weeks
Protocol: HeLa cells were cultured at 1 × 10^3 cells per well in a 6-well plate with a regular growth medium for 12 h. After the cells were fixed on the wall, they were treated with different concentrations of compound 5c or 0.1% DMSO for 24 h. Then, the cells were cultured in a fresh medium for two weeks until the colonies were visible. A crystal violet staining solution (Beyotime, Shanghai, China) was used to stain the colonies for 30 min, and the result was recorded by a smartphone. The colonies were defined as >50 cells/colony.

For `N#C/C(=C\c1ccc(C2=CC(=O)c3ccccc3C2=O)o1)C(=O)NCCN1CCOCC1` [Compound 5c, (E)-2-cyano-3-(5-(1,4-dioxo-1,4-dihydronaphthalen-2-yl)furan-2-yl)-N-(2-morpholinoethyl)acrylamide], the “colony forming ability of HeLa cells” value was “significantly inhibited”.
